Where two headings read alike, the source gives them in different places.
Target: T1, human GR (Homo sapiens, UniProt P04150)
T1 sequence (P04150 1-777): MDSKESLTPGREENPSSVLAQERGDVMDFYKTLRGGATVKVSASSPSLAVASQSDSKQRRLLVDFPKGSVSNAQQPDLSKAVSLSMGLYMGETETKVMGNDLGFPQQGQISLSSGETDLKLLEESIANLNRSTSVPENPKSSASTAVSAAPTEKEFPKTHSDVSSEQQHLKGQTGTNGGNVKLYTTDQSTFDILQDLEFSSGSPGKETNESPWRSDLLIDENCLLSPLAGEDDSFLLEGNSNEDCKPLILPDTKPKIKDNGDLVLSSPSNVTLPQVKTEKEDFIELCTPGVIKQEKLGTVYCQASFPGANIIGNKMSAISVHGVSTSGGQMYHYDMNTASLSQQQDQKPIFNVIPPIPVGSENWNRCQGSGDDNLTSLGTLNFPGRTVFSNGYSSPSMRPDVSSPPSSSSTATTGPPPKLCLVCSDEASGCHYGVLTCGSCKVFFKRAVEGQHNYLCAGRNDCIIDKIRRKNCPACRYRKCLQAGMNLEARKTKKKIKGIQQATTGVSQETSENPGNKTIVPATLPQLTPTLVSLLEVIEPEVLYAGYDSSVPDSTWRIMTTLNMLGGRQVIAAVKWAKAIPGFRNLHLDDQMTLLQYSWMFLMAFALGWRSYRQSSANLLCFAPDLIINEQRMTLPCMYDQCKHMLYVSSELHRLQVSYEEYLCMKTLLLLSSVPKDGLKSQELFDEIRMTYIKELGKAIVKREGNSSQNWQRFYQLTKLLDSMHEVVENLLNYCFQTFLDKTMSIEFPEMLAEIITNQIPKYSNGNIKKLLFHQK
Assay: Transrepression Assay (GITAR), TNFα-β-lactamase reporter in U937 cells
Type: cell-based
Set-up: U937 cells contain an endogenous glucocorticoid receptor (GR); endogenous in cells; host or cells: U937 cells stably transfected with the TNF-alpha promoter/beta-lactamase reporter
Settings: for GITAR > GRAMM % SEP: GITAR Emax minus GRAMMER Emax; for EC50: U937 cells, inflection point, read-out: Transrepression U937 Cells GITAR IP
How it was run: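 U937 cells stably carrying a TNF-α promoter–β-lactamase reporter, with endogenous GR, are preincubated with compound 30–45 min at 37 °C, then stimulated with PMA (5 ng/ml final) and LPS (100 ng/ml final) overnight (~18 hr). β-Lactamase is read with CCF2-AM substrate; repression by 100 nM dexamethasone defines 100%.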

[1] = U-937, U937 cells, maximum activity, read-out: Transrepression U937 Cells GITAR Emax
[2] = U-937, activity repressed by 100 nM dexamethasone alone set as 100%, read-out: maximal activity in the transrepression (GITAR) assay

SMILES | GITAR > GRAMM % SEP | EC50 | Emax [1] | Emax [2]
C[C@]12Cc3cnn(-c4ccc(F)cc4)c3C=C1CC[C@@H]2CN(CCc1ccccn1)S(=O)(=O)Cc1ccccc1C(N)=O [Example 196, 2-({[{[(4αR,5S)-1-(4-fluorophenyl)-4α-methyl-1,4,4α,5,6,7-hexahydrocyclopenta[f]indazol-5-yl]methyl}(2-pyridin-2-ylethyl)amino]sulfonyl}methyl)benzamide] | 3.7% | 387 nM | 40.3% | > 5%
Cn1cc(S(=O)(=O)N(CC2CCCO2)C[C@H]2CCC3=Cc4c(cnn4-c4ccc(F)cc4)C[C@@]32C)c(C(F)(F)F)n1 (stereo partly drawn) [Example 175, N-{[(4αR,5S)-1-(4-fluorophenyl)-4α-methyl-1,4,4α,5,6,7-hexahydrocyclopenta[f]indazol-5-yl]methyl}-1-methyl-N-(tetrahydrofuran-2-ylmethyl)-3-(trifluoromethyl)-1H-pyrazole-4-sulfonamide] | – | 822 nM | 47.5% | > 5%
C[C@]12Cc3cnn(-c4ccc(F)cc4)c3C=C1CC[C@@H]2CN(CC#N)S(=O)(=O)c1ccc(F)cc1 [Example 46, N-(cyanomethyl)-4-fluoro-N-{[(4αR,5S)-1-(4-fluorophenyl)-4α-methyl-1,4,4α,5,6,7-hexahydrocyclopenta[f]indazol-5-yl]methyl}benzenesulfonamide] | 2.1% | 187 nM | 85.5% | > 5%
CCN(C[C@H]1CCC2=Cc3c(cnn3-c3ccc(F)cc3)C[C@@]21C)S(=O)(=O)CC(F)(F)F [Example 179, N-ethyl-2,2,2-trifluoro-N-{[(4αR,5S)-1-(4-fluorophenyl)-4α-methyl-1,4,4α,5,6,7-hexahydrocyclopenta[f]indazol-5-yl]methyl}ethanesulfonamide] | 31.2% | 440 nM | 96.5% | > 5%
C[C@]12Cc3cnn(-c4ccc(F)cc4)c3C=C1CC[C@@H]2CN(CC#N)S(=O)(=O)c1cccc(C#N)c1 [Example 36, 3-cyano-N-(cyanomethyl)-N-{[(4αR,5S)-1-(4-fluorophenyl)-4α-methyl-1,4,4α,5,6,7-hexahydrocyclopenta[f]indazol-5-yl]methyl}benzenesulfonamide] | 49.5% | 540 nM | 72.2% | > 5%
C[C@H](O)CN(C[C@H]1CCC2=Cc3c(cnn3-c3ccc(F)cc3)C[C@@]21C)S(=O)(=O)Cc1ccccc1C(N)=O [Example 185, 2-[({{[(4αR,5S)-1-(4-fluorophenyl)-4α-methyl-1,4,4α,5,6,7-hexahydrocyclopenta[f]indazol-5-yl]methyl}[(2S)-2-hydroxypropyl]amino}sulfonyl)methyl]benzamide] | 43.1% | 676 nM | 63% | > 5%
CC([C@H]1CCC2=Cc3c(cnn3-c3ccc(F)cc3)C[C@@]21C)N(CCc1ccccn1)S(=O)(=O)Cc1cccnc1 (stereo partly drawn) [Example 197, N-{1-[(4αR)-1-(4-fluorophenyl)-4α-methyl-1,4,4α,5,6,7-hexahydrocyclopenta[f]indazol-5-yl]ethyl}-1-pyridin-3-yl-N-(2-pyridin-2-ylethyl)methanesulfonamide] | 1.8% | 1040 nM | 45.5% | > 5%
Cc1noc(C)c1S(=O)(=O)N(C)C[C@H]1CCC2=Cc3c(cnn3-c3ccc(F)cc3)C[C@@]21C [Example 176, N-{[(4αR,5S)-1-(4-fluorophenyl)-4α-methyl-1,4,4α,5,6,7-hexahydrocyclopenta[f]indazol-5-yl]methyl}-N,3,5-trimethylisoxazole-4-sulfonamide] | 17.6% | 316 nM | 74.5% | > 5%
C[C@]12Cc3cnn(-c4ccc(F)cc4)c3C=C1CC[C@@H]2CN(CC#N)S(=O)(=O)c1cccc(Cl)c1Cl [Example 26, 2,3-dichloro-N-(cyanomethyl)-N-{[(4αR,5S)-1-(4-fluorophenyl)-4α-methyl-1,4,4α,5,6,7-hexahydrocyclopenta[f]indazol-5-yl]methyl}benzenesulfonamide] | 10.2% | 25 nM | 16% | > 5%
CCN(C[C@H]1CCC2=Cc3c(cnn3-c3ccc(F)cc3)C[C@@]21C)S(=O)(=O)c1c(C)noc1C [Example 178, N-ethyl-N-{[(4αR,5S)-1-(4-fluorophenyl)-4α-methyl-1,4,4α,5,6,7-hexahydrocyclopenta[f]indazol-5-yl]methyl}-3,5-dimethylisoxazole-4-sulfonamide] | 19.5% | 276 nM | 74.5% | > 5%
C[C@]12Cc3cnn(-c4ccc(F)cc4)c3C=C1CC[C@@H]2CN(CCO)S(=O)(=O)c1cc(Cl)c(Cl)s1 [Example 58, 4,5-dichloro-N-{[(4αR,5S)-1-(4-fluorophenyl)-4α-methyl-1,4,4α,5,6,7-hexahydrocyclopenta[f]indazol-5-yl]methyl}-N-(2-hydroxyethyl)thiophene-2-sulfonamide] | 25.7% | 737 nM | 28.8% | > 5%
COCCN(C[C@H]1CCC2=Cc3c(cnn3-c3ccc(F)cc3)C[C@@]21C)S(=O)(=O)c1c(C)noc1C [Example 173, N-{[(4αR,5S)-1-(4-fluorophenyl)-4α-methyl-1,4,4α,5,6,7-hexahydrocyclopenta[f]indazol-5-yl]methyl}-N-(2-methoxyethyl)-3,5-dimethylisoxazole-4-sulfonamide] | 12.6% | 520 nM | 83% | > 5%
C[C@]12Cc3cnn(-c4ccc(F)cc4)c3C=C1CC[C@@H]2CN(CC#N)S(=O)(=O)c1ccccc1F [Example 43, N-(cyanomethyl)-2-fluoro-N-{[(4αR,5S)-1-(4-fluorophenyl)-4α-methyl-1,4,4α,5,6,7-hexahydrocyclopenta[f]indazol-5-yl]methyl}benzenesulfonamide] | 35.8% | 1100 nM | 71.8% | > 5%
C[C@]12Cc3cnn(-c4ccc(F)cc4)c3C=C1CC[C@@H]2CN(CC#N)S(=O)(=O)Cc1cccc(C(F)(F)F)c1 [Example 30, N-(cyanomethyl)-N-{[(4αR,5S)-1-(4-fluorophenyl}-4α-methyl-1,4,4α,5,6,7-hexahydrocyclopenta[f]indazol-5-yl]methyl}-1-[3-(trifluoromethyl)phenyl]methanesulfonamide] | 16.4% | 417 nM | 19.9% | > 5%
C[C@]12Cc3cnn(-c4ccc(F)cc4)c3C=C1CC[C@@H]2CN(CC1(O)CCCCC1)S(=O)(=O)c1ccccc1F [Example 201, 2-fluoro-N-{[(4αR,5S)-1-(4-fluorophenyl)-4α-methyl-1,4,4α,5,6,7-hexahydrocyclopenta[f]indazol-5-yl]methyl}-N-[(1-hydroxycyclohexyl)methyl]benzenesulfonamide] | 21.7% | 486 nM | 69.5% | > 5%
C[C@@H](O)CN(C[C@H]1CCC2=Cc3c(cnn3-c3ccc(F)cc3)C[C@@]21C)S(=O)(=O)Cc1ccccc1C(=O)O [Example 182, 2-[({{[(4αR,5S)-1-(4-fluorophenyl)-4α-methyl-1,4,4α,5,6,7-hexahydrocyclopenta[f]indazol-5-yl]methyl}[(2R)-2-hydroxypropyl]amino}sulfonyl)methyl]benzoic acid] | 8.2% | 1890 nM | 16.2% | > 5%
COC(=O)c1ccccc1CS(=O)(=O)N(C[C@H]1CCC2=Cc3c(cnn3-c3ccc(F)cc3)C[C@@]21C)C[C@H](C)O [Example 181, methyl 2-[({{[(4αR,5S)-1-(4-fluorophenyl)-4α-methyl-1,4,4α,5,6,7-hexahydrocyclopenta[f]indazol-5-yl]methyl}[(2S)-2-hydroxypropyl]amino}sulfonyl)methyl]benzoate] | 24.7% | 263 nM | 79.2% | > 5%
COC(=O)c1ccccc1S(=O)(=O)N(CCc1ccccc1F)C[C@H]1CCC2=Cc3c(cnn3-c3ccc(F)cc3)C[C@@]21C [Example 189, methyl 2-[([2-(2-fluorophenyl)ethyl]{[(4αR,5S)-1-(4-fluorophenyl)-4α-methyl-1,4,4α,5,6,7-hexahydrocyclopenta[f]indazol-5-yl]methyl}amino)sulfonyl]benzoate] | 15.7% | 189 nM | 81% | > 5%
